Laboratory results from ChEMBL document CHEMBL4312017, “Synthesis and discovery of new compounds bearing coumarin scaffold for the treatment of pulmonary fibrosis” (Eur J Med Chem, 2020).
Calls of active or inactive are those of the source. The rule behind the calls is not given here.

Columns and labels:
NRK-49F [1] = assay: Inhibition of TGF-beta-induced collagen accumulation in rat NRK-49F cells at 10 uM incubated for 2 days by PSR staining based microscopic analysis relative to control; type: functional; settings: 48 h
[2] = Cytotoxicity against rat NRK-49F cells assessed as cell viability at 10 uM incubated for 72 hrs by MTT assay; type: cell-based; settings: read-out: Activity
Mus musculus [3] = assay: Antifibrotic activity against BLM-induced C57BL/6 mouse pulmonary fibrosis model assessed as increase in time for reduction of alveoli at 50 mg/kg, po administered for 28 days and measured on day 14 and 28 by HE staining based fluorescence microscopy; type: functional, organism-based
[4] = Oral bioavailability in Sprague-Dawley rat 10 mg/kg measured upto 24 hrs; type: ADME, organism-based; settings: in vivo
Mus musculus [5] = assay: Antifibrotic activity against BLM-induced C57BL/6 mouse pulmonary fibrosis model assessed as decrease in bronchial epithelial vacuolar degeneration at 50 mg/kg, po administered for 28 days and measured on day 14 and 28 by HE staining based fluorescence microscopy; type: functional, organism-based
Mus musculus [6] = assay: Antifibrotic activity against BLM-induced C57BL/6 mouse pulmonary fibrosis model assessed as reduction in total white blood cells in BALF at 50 mg/kg, po administered for 28 days and measured on day 28; type: functional, organism-based
Mus musculus [7] = assay: Antifibrotic activity against BLM-induced C57BL/6 mouse pulmonary fibrosis model assessed as decrease in bronchioles inflammatory cell infiltration at 50 mg/kg, po administered for 28 days and measured on day 14 and 28 by HE staining based fluorescence microscopy; type: functional, organism-based
Mus musculus [8] = assay: Antifibrotic activity against BLM-induced C57BL/6 mouse pulmonary fibrosis model assessed as decrease in destruction alveolar structure at 50 mg/kg, po administered for 28 days and measured on day 14 and 28 by HE staining based fluorescence microscopy; type: functional, organism-based
NRK-49F [9] = assay: Inhibition of TGF-beta-induced collagen accumulation in rat NRK-49F cells incubated for 2 days by PSR staining based microscopic analysis; type: functional, cell-based; settings: for IC50: 48 h
Mus musculus [10] = assay: Antifibrotic activity against BLM-induced C57BL/6 mouse pulmonary fibrosis model assessed as reduction in neutrophils in BALF at 50 mg/kg, po administered for 28 days and measured on day 28; type: functional, organism-based
Mus musculus [11] = assay: Antifibrotic activity against BLM-induced C57BL/6 mouse pulmonary fibrosis model assessed as decrease in perivascular inflammatory cell infiltration at 50 mg/kg, po administered for 28 days and measured on day 14 and 28 by HE staining based fluorescence microscopy; type: functional, organism-based
Mus musculus [12] = assay: Antifibrotic activity against BLM-induced C57BL/6 mouse pulmonary fibrosis model assessed as reduction in lymphocytes in BALF at 50 mg/kg, po administered for 28 days and measured on day 28; type: functional, organism-based
Mus musculus [13] = assay: Antifibrotic activity against BLM-induced C57BL/6 mouse pulmonary fibrosis model assessed as decrease in bronchiolar epithelial cell shedding at 50 mg/kg, po administered for 28 days and measured on day 14 and 28 by HE staining based fluorescence microscopy; type: functional, organism-based
Mus musculus [14] = assay: Antifibrotic activity against C57BL/6 mouse pulmonary fibrosis model assessed as reduction in bleomycin-iduced hydroxyproline level at 50 mg/kg, po administered for 28 days and measured on day 14 and 28 by spectrophotometry; type: functional, organism-based
NIH3T3 = assay: Inhibition of TGF-beta-induced […] migration in mouse NIH/3T3 cells at 1 uM incubated for 24 hrs by Transwell assay; type: functional, cell-based

SMILES	inhibition at 10 µM (NRK-49F [1]) [%]	viability at 72 h, 10 µM [2] [%]	other results
O=C(CN1CCCCC1)Nc1ccc(Nc2cc(=O)oc3ccc([N+](=O)[O-])cc23)cc1	15.4	20.3	
COc1ccc2c(Oc3ccc(NC(=O)CN4CCCC4)cc3)cc(=O)oc2c1	8.07	93.3	
COC(=O)c1ccc2c(c1)NC(=O)/C2=C(\Nc1ccc(N(C)C(=O)CN2CCN(C)CC2)cc1)c1ccccc1 [NINTEDANIB]	95.5	40	Activity (Mus musculus [3]): Active; bioavailability [4]: 12%; Activity (Mus musculus [5]): Active; Activity (Mus musculus [6]): Active; Activity (Mus musculus [7]): Active; Activity (Mus musculus [8]): Active; IC50 (NRK-49F [9]): 1.1 µM; Activity (Mus musculus [10]): Active; Activity (Mus musculus [11]): Active; Activity (Mus musculus [12]): Active; Activity (Mus musculus [13]): Active; Activity (Mus musculus [14]): inactive
COc1ccc2c(Nc3ccc(NC(=O)CN4CCCC4)cc3)cc(=O)oc2c1	15.7	52	
COc1ccc2c(Nc3ccc(NC(=O)CN4CCN(C)CC4)cc3)cc(=O)oc2c1	80.2	87.2	inhibition (NIH3T3): Active; inhibition (NRK-49F [9]): Dose-dependent effect; IC50 (NRK-49F [9]): 4.35 µM
O=C(CN1CCCC1)Nc1ccc(Oc2cc(=O)oc3ccccc23)cc1	18.8	82.9	
CN1CCN(CC(=O)Nc2ccc(Oc3cc(=O)oc4ccccc34)cc2)CC1	24	83.6	
O=C(CN1CCOCC1)Nc1ccc(Nc2cc(=O)oc3ccccc23)cc1F	34.5	72.3	
COc1ccc2c(Nc3ccc(NC(=O)CN4CCOCC4)cc3)cc(=O)oc2c1	72.9	89.1	
CN1CCN(CC(=O)Nc2ccc(Nc3cc(=O)oc4ccccc34)cc2F)CC1	36.8	78.1	
O=C(CN1CCCC1)Nc1ccc(Nc2cc(=O)oc3ccccc23)cc1	12.4	62	
COc1ccc2c(Nc3ccc(NC(=O)CN4CCCCC4)cc3)cc(=O)oc2c1	74.5	41.3	
O=C(CN1CCCC1)Nc1ccc(Nc2cc(=O)oc3ccccc23)cc1F	33.3	74.3	
O=C(CN1CCOCC1)Nc1ccc(Nc2cc(=O)oc3ccc([N+](=O)[O-])cc23)cc1	31.7	23.1	
C[C@H]1CCCN(CC(=O)Nc2ccc(Nc3cc(=O)oc4ccccc34)cc2)C1	80.2	91.5	inhibition (NIH3T3): Active; inhibition (NRK-49F [9]): Dose-dependent effect; IC50 (NRK-49F [9]): 3.96 µM
COc1ccc2c(Oc3ccc(NC(=O)CN4CCOCC4)cc3)cc(=O)oc2c1	78.3	96.5	inhibition (NIH3T3): Active; inhibition (NRK-49F [9]): Dose-dependent effect; IC50 (NRK-49F [9]): 3.71 µM
C[C@H]1CCCN(CC(=O)Nc2ccc(Nc3cc(=O)oc4ccc([N+](=O)[O-])cc34)cc2)C1	28.7	17.8	
COc1ccc2c(Oc3ccc(NC(=O)CN4CCN(C)CC4)cc3)cc(=O)oc2c1	65.4	95.6	
COc1ccc2c(Nc3ccc(NC(=O)CN4CCC[C@H](C)C4)cc3)cc(=O)oc2c1	72.7	90.1	
CN1CCN(CC(=O)Nc2ccc(Nc3cc(=O)oc4ccc([N+](=O)[O-])cc34)cc2)CC1	22.3	32.1	
O=C(CN1CCOCC1)Nc1ccc(Nc2cc(=O)oc3ccccc23)cc1	41.8	75.2	
COc1ccc2c(Oc3ccc(NC(=O)CN4CCCCC4)cc3)cc(=O)oc2c1	73.5	90.4	
O=C(CN1CCCCC1)Nc1ccc(Nc2cc(=O)oc3ccccc23)cc1	75.2	43.6	
C[C@H]1CCCN(CC(=O)Nc2ccc(Oc3cc(=O)oc4ccccc34)cc2)C1	75.3	98	
O=C(CN1CCOCC1)Nc1ccc(Oc2cc(=O)oc3ccccc23)cc1	34.6	97	
O=C(CN1CCCC1)Nc1ccc(Nc2cc(=O)oc3ccc([N+](=O)[O-])cc23)cc1	17.9	45.3	
O=C(CN1CCCCC1)Nc1ccc(Nc2cc(=O)oc3ccccc23)cc1F	11.3	67.7	
C[C@H]1CCCN(CC(=O)Nc2ccc(Nc3cc(=O)oc4ccccc34)cc2F)C1	21.9	88.5	
CN1CCN(CC(=O)Nc2ccc(Nc3cc(=O)oc4ccccc34)cc2)CC1	26.8	87.5	
COc1ccc2c(Oc3ccc(NC(=O)CN4CCC[C@H](C)C4)cc3)cc(=O)oc2c1	32.6	90.5	
